In patent publication US20120029187A1, “HALOALKYLSULFONANILIDE DERIVATIVE” (Nissan Chemical Industries, Ltd., priority 2009, published 2012):

Assays:
Format in all cases: in vivo
[1] = tested on: barnyardgrass; assay: Test Example 1: herbicidal effects in preemergence treatment under submerged conditions; conditions: dose 2.52 g/a
In short: (§1)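 Score 0–5 by mortality (5: ≥90%; 0: <5%), read 3 weeks post-application. Paddy-type cups: alluvial soil under 4 cm water, weeds seeded plus transplanted 2.5-leaf rice; diluted EC dosed onto water surface same day as sowing, g/a basis; greenhouse 25 to 30° C.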

[2] = tested on: ducksalad; assay: as above; conditions: dose 2.52 g/a
In short: as §1

[3] = tested on: bulrush; assay: as above; conditions: dose 2.52 g/a
In short: as §1

[4] = tested on: Italian ryegrass; assay: Test Example 4: herbicidal effect in foliage treatment; conditions: dose 6.3 g/a, three weeks after application
In short: (§2)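 Visual herbicidal scores on a graded scale were recorded three weeks after foliar application. Compounds went on as diluted emulsifiable concentrates at predetermined g/a to plants grown 14 days in a 25 to 30° C greenhouse.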

[5] = tested on: posumbu knotweed; assay: as above; conditions: dose 6.3 g/a, three weeks after application
In short: as §2

[6] = tested on: large crabgrass; assay: as above; conditions: dose 6.3 g/a, three weeks after application
In short: as §2

[7] = tested on: barnyardgrass; assay: as above; conditions: dose 6.3 g/a, three weeks after application
In short: as §2

[8] = tested on: common ragweed; assay: as above; conditions: dose 6.3 g/a, three weeks after application
In short: as §2

[9] = tested on: water foxtail; assay: as above; conditions: dose 6.3 g/a, three weeks after application
In short: as §2

[10] = tested on: wild oat; assay: as above; conditions: dose 6.3 g/a, three weeks after application
In short: as §2

[11] = tested on: beadstraw; assay: as above; conditions: dose 6.3 g/a, three weeks after application
In short: as §2

[12] = tested on: redroot pigweed; assay: as above; conditions: dose 6.3 g/a, three weeks after application
In short: as §2

[13] = tested on: common lambsquater; assay: as above; conditions: dose 6.3 g/a, three weeks after application
In short: as §2

[14] = tested on: giant foxtail; assay: as above; conditions: dose 6.3 g/a, three weeks after application
In short: as §2

[15] = tested on: common chickweed; assay: as above; conditions: dose 6.3 g/a, three weeks after application
In short: as §2

[16] = tested on: velvetleaf; assay: as above; conditions: dose 6.3 g/a, three weeks after application
In short: as §2

[17] = tested on: Italian ryegrass; assay: Test Example 3: herbicidal effects in soil treatment; conditions: dose 6.3 g/a
In short: (§3)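 Seeds were sown in sterilized diluvial soil and covered with about 1.5 cm of soil. Compounds, formulated as emulsifiable concentrates and diluted with water, were sprayed evenly over the soil surface at set doses in g/a. Herbicidal effect was scored on a rating scale three weeks later.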

[18] = tested on: posumbu knotweed; assay: as above; conditions: dose 6.3 g/a
In short: as §3

[19] = tested on: large crabgrass; assay: as above; conditions: dose 6.3 g/a
In short: as §3

[20] = tested on: barnyardgrass; assay: as above; conditions: dose 6.3 g/a
In short: as §3

[21] = tested on: common ragweed; assay: as above; conditions: dose 6.3 g/a
In short: as §3

[22] = tested on: water foxtail; assay: as above; conditions: dose 6.3 g/a
In short: as §3

[23] = tested on: wild oat; assay: as above; conditions: dose 6.3 g/a
In short: as §3

[24] = tested on: redroot pigweed; assay: as above; conditions: dose 6.3 g/a
In short: as §3

[25] = tested on: common lambsquater; assay: as above; conditions: dose 6.3 g/a
In short: as §3

[26] = tested on: giant foxtail; assay: as above; conditions: dose 6.3 g/a
In short: as §3

[27] = tested on: common chickweed; assay: as above; conditions: dose 6.3 g/a
In short: as §3

[28] = tested on: velvetleaf; assay: as above; conditions: dose 6.3 g/a
In short: as §3

[29] = tested on: transplanted rice; assay: Test Example 1: preemergence treatment under submerged conditions, effect on crop; conditions: dose 2.52 g/a
In short: as §1

[30] = tested on: barnyardgrass; assay: Test Example 2: herbicidal effects during the vegetation period under submerged conditions; conditions: treatment during the vegetation period under submerged conditions; dose 2.52 g/a
In short: (§4)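 Barnyardgrass, bulrush and ducksalad were co-sown in alluvial soil flooded to 4 cm and grown in a greenhouse at 25 to 30° C. At the 1- or 2-leaf stage, water-diluted emulsifiable concentrates went onto the water surface at set doses (g/a). Herbicidal effect was scored three weeks later on a graded scale.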

[31] = tested on: ducksalad; assay: as above; conditions: treatment during the vegetation period under submerged conditions; dose 2.52 g/a
In short: as §4

[32] = tested on: bulrush; assay: as above; conditions: treatment during the vegetation period under submerged conditions; dose 2.52 g/a
In short: as §4

| Structure (SMILES) | A: barnyardgrass, herbicidal effect (evaluation scale 0-5) [1] | C: ducksalad, herbicidal effect (evaluation scale 0-5) [2] | B: bulrush, herbicidal effect (evaluation scale 0-5) [3] | H: Italian ryegrass, herbicidal effect [4] | M: posumbu knotweed, herbicidal effect [5] | D: large crabgrass, herbicidal effect [6] | A: barnyardgrass, herbicidal effect [7] | J: common ragweed, herbicidal effect [8] | G: water foxtail, herbicidal effect [9] | F: wild oat, herbicidal effect [10] | O: beadstraw, herbicidal effect [11] | K: redroot pigweed, herbicidal effect [12] | L: common lambsquater, herbicidal effect [13] | E: giant foxtail, herbicidal effect [14] | N: common chickweed, herbicidal effect [15] | I: velvetleaf, herbicidal effect [16] | H: Italian ryegrass, herbicidal effect (evaluation scale 0-5) [17] | M: posumbu knotweed, herbicidal effect (evaluation scale 0-5) [18] | D: large crabgrass, herbicidal effect (evaluation scale 0-5) [19] | A: barnyardgrass, herbicidal effect (evaluation scale 0-5) [20] | other results |
| --- | --- | --- | --- | --- | --- | --- | --- | --- | --- | --- | --- | --- | --- | --- | --- | --- | --- | --- | --- | --- | --- |
| CC(C)COC(=O)N(c1ccccc1CN1CCOCC1=O)S(=O)(=O)C(F)(F)F [Compound I-3] | 5 (mortality of 90% or above (nearly complete death)) | 5 (mortality of 90% or above (nearly complete death)) | 5 (mortality of 90% or above (nearly complete death)) | 3 (mortality of at least 40% and less than 70%) | 0 (mortality of less than 5% (almost ineffective)) | 5 (mortality of 90% or above (nearly complete death)) | 5 (mortality of 90% or above (nearly complete death)) | 4 (mortality of at least 70% and less than 90%) | 5 (mortality of 90% or above (nearly complete death)) | 0 (mortality of less than 5% (almost ineffective)) | 4 (mortality of at least 70% and less than 90%) | 2 (mortality of at least 20% and less than 40%) | 4 (mortality of at least 70% and less than 90%) | 4 (mortality of at least 70% and less than 90%) | 4 (mortality of at least 70% and less than 90%) | 5 (mortality of 90% or above (nearly complete death)) | 5 (mortality of 90% or above (nearly complete death)) | 3 (mortality of at least 40% and less than 70%) | 5 (mortality of 90% or above (nearly complete death)) | 5 (mortality of 90% or above (nearly complete death)) | J: common ragweed, herbicidal effect (evaluation scale 0-5) [21]: 4 (mortality of at least 70% and less than 90%); G: water foxtail, herbicidal effect (evaluation scale 0-5) [22]: 5 (mortality of 90% or above (nearly complete death)); F: wild oat, herbicidal effect (evaluation scale 0-5) [23]: 0 (mortality of less than 5% (almost ineffective)); K: redroot pigweed, herbicidal effect (evaluation scale 0-5) [24]: 3 (mortality of at least 40% and less than 70%); L: common lambsquater, herbicidal effect (evaluation scale 0-5) [25]: 5 (mortality of 90% or above (nearly complete death)); E: giant foxtail, herbicidal effect (evaluation scale 0-5) [26]: 5 (mortality of 90% or above (nearly complete death)); N: common chickweed, herbicidal effect (evaluation scale 0-5) [27]: 5 (mortality of 90% or above (nearly complete death)); I: velvetleaf, herbicidal effect (evaluation scale 0-5) [28]: 5 (mortality of 90% or above (nearly complete death)); a: transplanted rice, effect on crop (evaluation scale 0-5) [29]: 0 (mortality of less than 5% (almost ineffective)); A: barnyardgrass, herbicidal effect (evaluation scale 0-5) [30]: 5 (mortality of 90% or above (nearly complete death)); C: ducksalad, herbicidal effect (evaluation scale 0-5) [31]: 5 (mortality of 90% or above (nearly complete death)); B: bulrush, herbicidal effect (evaluation scale 0-5) [32]: 5 (mortality of 90% or above (nearly complete death)) |
| CCOC(=O)N(c1ccccc1CN1CCOC(C)C1=O)S(=O)(=O)C(F)(F)F (stereo not shown) [Compound I-5, 2-methyl-4-[2-(N-ethoxycarbonyl-N-trifluoromethanesulfonyl)aminobenzyl]-1,4-oxazinan-3-one] | 5 (mortality of 90% or above (nearly complete death)) | 5 (mortality of 90% or above (nearly complete death)) | 5 (mortality of 90% or above (nearly complete death)) | 4 (mortality of at least 70% and less than 90%) | 4 (mortality of at least 70% and less than 90%) | 5 (mortality of 90% or above (nearly complete death)) | 5 (mortality of 90% or above (nearly complete death)) | 4 (mortality of at least 70% and less than 90%) | 5 (mortality of 90% or above (nearly complete death)) | 2 (mortality of at least 20% and less than 40%) | 3 (mortality of at least 40% and less than 70%) | 3 (mortality of at least 40% and less than 70%) | 3 (mortality of at least 40% and less than 70%) | 4 (mortality of at least 70% and less than 90%) | 4 (mortality of at least 70% and less than 90%) | 4 (mortality of at least 70% and less than 90%) | 1 (mortality of at least 5% and less than 20%) | 4 (mortality of at least 70% and less than 90%) | 5 (mortality of 90% or above (nearly complete death)) | 5 (mortality of 90% or above (nearly complete death)) | J: common ragweed, herbicidal effect (evaluation scale 0-5) [21]: 4 (mortality of at least 70% and less than 90%); G: water foxtail, herbicidal effect (evaluation scale 0-5) [22]: 5 (mortality of 90% or above (nearly complete death)); F: wild oat, herbicidal effect (evaluation scale 0-5) [23]: 3 (mortality of at least 40% and less than 70%); K: redroot pigweed, herbicidal effect (evaluation scale 0-5) [24]: 4 (mortality of at least 70% and less than 90%); L: common lambsquater, herbicidal effect (evaluation scale 0-5) [25]: 5 (mortality of 90% or above (nearly complete death)); E: giant foxtail, herbicidal effect (evaluation scale 0-5) [26]: 5 (mortality of 90% or above (nearly complete death)); N: common chickweed, herbicidal effect (evaluation scale 0-5) [27]: 5 (mortality of 90% or above (nearly complete death)); I: velvetleaf, herbicidal effect (evaluation scale 0-5) [28]: 4 (mortality of at least 70% and less than 90%); a: transplanted rice, effect on crop (evaluation scale 0-5) [29]: 0 (mortality of less than 5% (almost ineffective)); A: barnyardgrass, herbicidal effect (evaluation scale 0-5) [30]: 5 (mortality of 90% or above (nearly complete death)); C: ducksalad, herbicidal effect (evaluation scale 0-5) [31]: 5 (mortality of 90% or above (nearly complete death)); B: bulrush, herbicidal effect (evaluation scale 0-5) [32]: 5 (mortality of 90% or above (nearly complete death)) |
